Source: paper PMC12568646, “Enzymatic combinatorial synthesis of E-64 and related cysteine protease inhibitors” (Nature Chemical Biology, 2025)

What was measured:
cathepsin B = biological target: T1, cathepsin B (Homo sapiens, UniProt P07858); experiment: fluorogenic Z-Phe-Arg-AMC assay; assay type: biochemical; details: 40 μM Z-Phe-Arg-AMC, citrate phosphate pH 5.5, 5 mM DTT, 37 °C; covalent, irreversible
T1 construct: gene CTSB

papain = biological target: T2, papain (Carica papaya, UniProt P00784); experiment: X-ray co-crystal structure; assay type: binding; details: covalent, active-site Cys25
T2 construct: mature native enzyme, twice-crystallized from papaya latex (Sigma)
T2 sequence (P00784 134-345): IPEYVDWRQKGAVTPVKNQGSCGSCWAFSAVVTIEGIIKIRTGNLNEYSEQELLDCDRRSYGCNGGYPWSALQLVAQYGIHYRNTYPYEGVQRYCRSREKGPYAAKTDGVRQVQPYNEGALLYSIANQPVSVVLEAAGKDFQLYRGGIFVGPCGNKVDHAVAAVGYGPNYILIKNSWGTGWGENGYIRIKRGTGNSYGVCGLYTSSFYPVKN

Cp1B = test system: T3, Cp1B; experiment: X-ray crystal structure, […] Å; parameters: species or system Aspergillus flavus; details: ATP-binding site; crystal set up with ATP, MgCl2 and (±)-t-ES; MES also bound
T3 construct: full-length intron-free ORF in pET28a (pML8010), 6xHis-tagged, expressed in E. coli BL21(DE3); domains span residues 5-502

Cp1D = biological target: T4, Cp1D (Aspergillus flavus, UniProt A0A7U2QR00); experiment: LC-MS of amide product formation; assay type: biochemical; details: 5 mM agmatine, 10 mM ATP, 10 mM MgCl2, 50 mM sodium phosphate pH 8.0, 30 °C
T4 construct: gene F9C07_2276917; full-length intron-free ORF in pET28a, 6xHis-tagged, expressed in E. coli BL21(DE3)
T4 sequence (A0A7U2QR00 1-463): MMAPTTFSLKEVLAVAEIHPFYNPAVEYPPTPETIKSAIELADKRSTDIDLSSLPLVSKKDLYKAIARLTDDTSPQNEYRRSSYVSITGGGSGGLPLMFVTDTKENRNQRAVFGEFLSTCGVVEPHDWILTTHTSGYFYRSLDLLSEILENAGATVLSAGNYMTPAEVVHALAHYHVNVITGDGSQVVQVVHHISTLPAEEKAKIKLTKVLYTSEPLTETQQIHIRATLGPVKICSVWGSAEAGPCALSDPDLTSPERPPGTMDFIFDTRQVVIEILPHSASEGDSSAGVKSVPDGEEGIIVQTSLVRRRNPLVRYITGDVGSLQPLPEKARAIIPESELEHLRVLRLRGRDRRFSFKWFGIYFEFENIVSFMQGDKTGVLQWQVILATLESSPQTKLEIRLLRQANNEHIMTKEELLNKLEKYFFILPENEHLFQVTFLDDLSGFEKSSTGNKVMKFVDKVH

NCCCCCCCCNC(=O)[C@@H](NC(=O)[C@H]1O[C@@H]1C(=O)O)C1CCC1 [(2S,3S)-t-ES-a9-b7]
IC50 (cathepsin B): 14 ± 1.1 nM | X-ray co-crystal structure (papain): (2S,3S)-t-ES-a9-b7 was observed to be bound covalently to the active site cysteine

Nc1ncnc2c1ncn2[C@@H]1O[C@H](CO)[C@@H](O)[C@H]1O [adenosine]
X-ray crystal structure, 2.7 Å (Cp1B): crystal structure of Cp1B complexed with adenosine and 2-morpholinoethanesulfonic acid (MES) was determined

CC[C@H](C)[C@H](NC(=O)[C@@H]1O[C@H]1C(=O)O)C(=O)O [(2R,3R)-t-ES-L-Ile]
KM (apparent) (Cp1D): much more efficient compared to that toward (2R,3R)-t-ES-L-Ile
